Data on 4 molecules can be found in patent publication US20230272012A1, “PEPTIDES AND METHODS OF USE” (REALTA LIFE SCIENCES, INC., priority 2020, published 2023).

Series [1] can be described thus: ABO incompatibility hemolytic assay of complement activity (CH50-type). Conditions: human; peptide 0.8 mg/ml (~0.5 mM); read-out: decrease of ABO hemolysis compared to PA-I8Sar. In kind it is cell-based, human. The method in brief: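 Type AB human erythrocytes (5.0×10^7) incubated with 15% (final) type O human serum and 0.5 mM peptide in GVBS^++, 1 h at 37 °C. Hemolysis read as supernatant absorbance at 412 nm, expressed as percent of the serum-plus-RBC positive control; means of three independent experiments ±SEM.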

The next series concerns human neutrophils. As to the kind of experiment: NETosis assay (free DNA, PicoGreen). In kind it is cell-based. Conditions: peptide 2 mM; neutrophils stimulated with PMA and H2O2. On the procedure: Free DNA as a marker for NET formation was measured by PicoGreen as previously described. Briefly, 2.0×10^6 human neutrophils in 96-well plates were stimulated with 12 nM PMA and 0.05% H2O2 in RPMI with or without the indicated peptide variants (2 mM) for 2.5 hr in a 37° C. humified incubator supplemented with 5% CO2, allowing NETosis to occur. Neutrophils in RPMI alone served as a negative control. Fifty units of […] (Fisher) were added to each well to allow for digestion of released extracellular DNA for 10 min at 37° C. The preparation was then aliquoted into an adjacent well and mixed 1:1 with prepared PICO green reagent (Fisher). The fluorescence was then quantified on a BioTek microplate reader at excitation 485 nm/emission 528 nm.

The target in a further series is PD-L1 (Homo sapiens, UniProt Q9NZQ7). As to the kind of experiment: Peptide binding to immobilized PD-L1, ELISA plate-based assay. Conditions: increasing amounts of peptide. On the procedure: (§1) RLS-0117 was allowed to bind to immobilized CTLA-4, PD-1, PD-L1 on the surface of the plate. Bound C1q served as a positive and control for peptide binding. Increasing amounts of peptides were added to the plates followed by a rabbit polyclonal antibody that recognizes the peptides and then a secondary anti-rabbit antibody conjugated with HRP. The plate was then developed by addition of TMB as the substrate for the colorimetric assay.
Chain of PD-L1 (Q9NZQ7 19-290): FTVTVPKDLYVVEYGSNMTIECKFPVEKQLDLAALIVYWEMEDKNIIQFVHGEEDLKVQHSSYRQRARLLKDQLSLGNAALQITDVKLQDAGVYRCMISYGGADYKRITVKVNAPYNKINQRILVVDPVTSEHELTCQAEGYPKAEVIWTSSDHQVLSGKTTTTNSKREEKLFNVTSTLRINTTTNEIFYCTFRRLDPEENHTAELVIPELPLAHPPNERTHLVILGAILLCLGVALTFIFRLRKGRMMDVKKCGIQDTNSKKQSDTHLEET
(§2) The inventors further evaluated if RLS-0117 could bind to the well characterized checkpoint inhibitor, cytotoxic T-lymphocyte associated protein 4 (CTLA-4 aka CD152). […] Therefore, the pharmaceutical inhibition of CTLA-4 or its ligand has been considered a promising strategy by many cancer researchers and is a therapeutic target in cancer immunotherapy. To ascertain the ability of RLS-0117 to bind CTLA-4, a binding assay was performed in which these proteins were coated on a microtiter plate followed by incubation with increasing amounts of either […]. Plates coated with PD-1, PD-L1 and C1q served as a positive control […].

Series [2] is classed as in vivo, rat. Conditions: IV in Wistar rats, 20, 200, 400 mg/kg; 0.5-1440 minute. The method, then: (§3) Male Wistar rats with indwelling jugular catheters were administered PA-0117, -0127, -0130, and -0133 with groups of three animals receiving 20, 200 and 400 mg/kg of the compound as a single, bolus, IV infusion. A control group of rats received an infusion of saline IV. At various time points after infusion (0.5, 2, 5, 20, 60, 120, 240, 480, 1440 minute) an aliquot of blood was drawn and plasma isolated and frozen at −70° C. pending analysis. Animals were sacrificed after the terminal blood draw and a gross necropsy performed.
(§4) PA-0117 could not be analyzed as no functional complement activity was obtained from the plasma samples. […] PA-0117 was analyzed in a C1q target acquisition assay (C1q binding assay) as described in Example 1 (FIG. 9). […] PA-0127 and -0130 levels were determined by coating the plate with the plasma samples and directly detecting the peptides by rabbit antibody raised against PA-0020 (peptide sequence […]; SEQ ID NO: 57) (FIGS. 10B and 11B). […] PA-0133 could not be detected by the available antibodies.
PA-0117: The hemolysis assay results were not useable (few pre-bleeds had any activity, and only a few other random samples had any complement activity). The PK assay for PA-0117 was performed by sandwich ELISA (FIG. 9). PA-0127: The results of the hemolysis assay are discussed herein (see also FIG. 10A). […] PA-0130: The results of the hemolysis assay are discussed herein (see also FIG. 11A). […] PA-0133: The results of the hemolysis assay are discussed herein (FIG. 12).

The target of another series is T1, CTLA-4 (Homo sapiens, UniProt P16410).
T1 sequence (P16410 36-223): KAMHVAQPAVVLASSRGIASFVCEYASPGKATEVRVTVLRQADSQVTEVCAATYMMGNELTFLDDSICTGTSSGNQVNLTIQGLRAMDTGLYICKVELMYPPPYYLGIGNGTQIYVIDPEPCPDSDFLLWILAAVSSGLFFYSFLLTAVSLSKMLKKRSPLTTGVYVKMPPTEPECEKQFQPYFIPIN
As to the kind of experiment: Peptide binding to immobilized CTLA-4, ELISA plate-based assay. Conditions: increasing amounts of peptide. On the procedure: as §1, §2

The target in another series is PD-1 (Homo sapiens, UniProt Q15116). As to the kind of experiment: Peptide binding to immobilized PD-1, ELISA plate-based assay. Conditions: increasing amounts of peptide. On the procedure: as §1, §2
Chain of PD-1 (Q15116 25-288): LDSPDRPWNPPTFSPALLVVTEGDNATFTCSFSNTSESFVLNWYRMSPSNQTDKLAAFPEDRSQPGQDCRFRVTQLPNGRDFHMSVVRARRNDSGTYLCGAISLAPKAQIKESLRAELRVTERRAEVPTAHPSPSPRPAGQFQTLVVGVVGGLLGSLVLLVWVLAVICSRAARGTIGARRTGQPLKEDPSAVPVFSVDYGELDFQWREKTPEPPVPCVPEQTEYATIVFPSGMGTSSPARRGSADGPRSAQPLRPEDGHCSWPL
In the next series the test system is complement activity. The series is described as follows: Hemolytic assay of plasma after IV infusion into rats. In kind it is in vivo, rat. The note with it: IV in Wistar rats; early time points at the highest dose. The method, then:
as §3, §4

“Also recorded” adds a separate entry of the source. Bridge positions count the residues as written; N and C are the ends. Square brackets hold non-standard residues; d marks the D form. Ends that are not written are not given here. Peptide text beside a SMILES is read from it. R8 = C=CCCCCCC[C@@](C)(N)C(=O)O; S5 = C=CCCC[C@](C)(N)C(=O)O; Sar = CNCC(=O)O

As for `CC[C@H](C)[C@H](N)C(=O)N[C@]1(C)CCCCCCC=CCCC[C@@](C)(C(=O)N[C@@H](CS)C(=O)N[C@@H](CCC(N)=O)C(=O)N[C@@H](CCC(=O)O)C(=O)N[C@@H](CCCNC(=N)N)C(=O)N[C@@H](C)C(=O)N[C@@H](C)C(=O)O)NC(=O)CN(C)C(=O)[C@@H]2CCCN2C(=O)[C@H](CCC(=O)O)NC(=O)[C@H](CC(C)C)NC(=O)[C@H]([C@@H](C)CC)NC(=O)[C@H](CC(C)C)NC1=O` [PA-0115, IR8LILEP(Sar)S5CQERAA] (H-I[R8]LILEP[Sar][S5]CQERAA-OH; staple 2-9), the decrease in ABO hemolysis compared to reference peptide at 1 h in series [1] was found to be 30%.
Turning to `CC[C@H](C)[C@H](N)C(=O)N[C@@H](C)C(=O)N[C@@H](CC(C)C)C(=O)N[C@H](C(=O)N[C@@H](CC(C)C)C(=O)N[C@@H](CCC(=O)O)C(=O)N1CCC[C@H]1C(=O)N(C)CC(=O)N[C@@H](CS)C(=O)N[C@@]1(C)CCCC=CCCC[C@@](C)(C(=O)N[C@@H](C)C(=O)O)NC(=O)[C@H](CCCNC(=N)N)NC(=O)[C@H](CCC(=O)O)NC(=O)[C@H](CCC(N)=O)NC1=O)[C@@H](C)CC` [PA-0117, IALILEP(Sar)CS5QERS5A] (H-IALILEP[Sar]C[S5]QER[S5]A-OH; staple 10-14), the “reduction of free DNA (marker of NETosis)” value in the series on human neutrophils is on record as “did not reduce levels of free DNA; also recorded: did not show a reduction in free DNA”. Further, the “binding to PD-L1” value on PD-L1 is on record as “dose-dependent binding”. In addition, in series [1], the decrease in ABO hemolysis compared to reference peptide at 1 h came out at 25%. Further, the “peptide level in plasma over time” value in series [2] was “detected at early time points at each dose and decreased over time”. In addition, at CTLA-4, the “binding to CTLA-4” value was “bound CTLA-4”. On PD-1, the “binding to PD-1” value is given as “dose-dependent binding”.
Consider “IALILEP(Sar)CCQERA (IALILEP[Sar]CCQERA; cysteine pairing not given here) [RLS-0133*]”, for which the “inhibition of complement activity in the hemolytic assay of rat plasma” value in the series on complement activity is given as “inhibit complement activation”.
Same read-out and setting: the value for “IALILEP(Sar)dCCQERRA (IALILEP[Sar][dC]CQERRA; cysteine pairing not given here) [RLS-0127*]” was “inhibit complement activation”.
